Experimental findings from patent US9499490B2, “Fluorophenyl pyrazol compounds” (Eli Lilly and Company, priority 2013, dated 2016) are described below.

One assay deals with obese DIO mice. As to the kind of experiment: Therapeutic weight loss effect in high fat diet induced obese (DIO) mice. The assay is classed as in vivo, mouse. The note with it: oral 30 mg/kg twice a day. How it is done: To determine the therapeutic weight loss effects and improvement of metabolic parameters, compounds from the invention are tested in the high fat diet (HFD) feeding induced obese mouse model (DIO mice). In this model, C57/B16J male mouse is fed with the 60% HFD (D12492i, Research Diets) for 16˜28 weeks to establish obesity with body weight reaching around 50 g. The mice will gradually increase the body weight to about 50 g and maintain that weight in this obese state. Test compound (via the vehicle of 0.5% HEC plus 0.25% Tween-80 at 5 mL/kg) is administered orally to the obese DIO mice once or twice daily throughout the study duration. The dose-dependent weight loss of obese DIO mice for Example 1 of the oral treatment at 30 mg/kg twice a day is about 6%, 10%, and 14% weight loss compared to the vehicle group at day 7, day 14, and day 21 respectively. The data support that the compound of Example 1 is associated with desired weight loss and offers therapeutic weight loss effect.

A further assay deals with T1, human MetAP2 (Homo sapiens, UniProt P50579).
T1 construct: Full length MetAP2 (human and mouse) and MetAP1 (human) proteins are generated from Sf9 cells; made in house; host or cells: Sf9 insect cells
As to the kind of experiment: Enzymatic activity assay of human MetAP2 (LC/MS detection of product peptide). The assay is classed as biochemical. The note with it: full length human MetAP2, substrate 150 μM, 40 min; read-out: IC50 value for hMetAP2. How it is done: (§1) Full length MetAP2 (human and mouse) and MetAP1 (human) proteins are generated from Sf9 cells using procedure similar to that described in Biochemistry 2003, 42, 5035-5042. MetAP2 and MetAP1 are purified in the presence of 5 mM MnCl2 and 2 mM CoCl2 respectively, and stored at −78° C. before use.
(§2) Compound inhibition of the catalytic activity of human and mouse MetAP2 in the present invention is monitored by the formation of the product peptide (Gly-Lys-Val-Lys-Val-Gly-Val-Asn-Gly) from the substrate peptide (Met-Gly-Lys-Val-Lys-Val-Gly-Val-Asn-Gly) via LC/MS detection. The reaction is typically conducted by incubating the enzyme, testing compound and substrate (150 μM) in a 100 μl assay buffer (50 mM HEPES, 100 mM NaCl, 50 mg/mL BSA, 0.17 mM Triton X-100 at pH 7.5) for 40 min. After the reaction is stopped by the addition of 200 μl acetonitrile, the levels of product and remaining substrate are quantified on a mass spectrometer. The activity of human MetAP1 is monitored by the formation of the fluorescent product rhodmine-methionine from the substrate methionine-rhodamine-methionine on a spectrophotometer with the excitation light at 460 nm and emission light at 535 nm. The reaction is typically conducted by incubating the enzyme, testing compound and substrate (50 μM) in a 100 μl assay buffer (50 mM HEPES, 100 mM NaCl, 0.1% BSA, 0.05% Tween-20, 50 μM CoCl2) for 60 min. […]

The next assay deals with T2, human MetAP1 (Homo sapiens, UniProt P53582).
T2 construct: Full length MetAP2 (human and mouse) and MetAP1 (human) proteins are generated from Sf9 cells; made in house; host or cells: Sf9 insect cells
As to the kind of experiment: Enzymatic activity assay of human MetAP1 (fluorescent rhodamine substrate). The note with it: full length human MetAP1, substrate 50 μM, 60 min. In kind it is biochemical. How it is done:
as §1, §2

The target of the next assay is T3, mouse MetAP2 (Mus musculus, UniProt O08663).
T3 construct: Full length MetAP2 (human and mouse) and MetAP1 (human) proteins are generated from Sf9 cells; made in house; host or cells: Sf9 insect cells
In words: Enzymatic activity assay of mouse MetAP2 (LC/MS detection of product peptide). The note with it: full length mouse MetAP2, substrate 150 μM, 40 min; read-out: IC50 value for mMetAP2. In kind it is biochemical. How it is done: as §1, §2

The structures appear in SMILES notation. Some results are limits rather than exact numbers.

T1 sequence (P50579 whole entry): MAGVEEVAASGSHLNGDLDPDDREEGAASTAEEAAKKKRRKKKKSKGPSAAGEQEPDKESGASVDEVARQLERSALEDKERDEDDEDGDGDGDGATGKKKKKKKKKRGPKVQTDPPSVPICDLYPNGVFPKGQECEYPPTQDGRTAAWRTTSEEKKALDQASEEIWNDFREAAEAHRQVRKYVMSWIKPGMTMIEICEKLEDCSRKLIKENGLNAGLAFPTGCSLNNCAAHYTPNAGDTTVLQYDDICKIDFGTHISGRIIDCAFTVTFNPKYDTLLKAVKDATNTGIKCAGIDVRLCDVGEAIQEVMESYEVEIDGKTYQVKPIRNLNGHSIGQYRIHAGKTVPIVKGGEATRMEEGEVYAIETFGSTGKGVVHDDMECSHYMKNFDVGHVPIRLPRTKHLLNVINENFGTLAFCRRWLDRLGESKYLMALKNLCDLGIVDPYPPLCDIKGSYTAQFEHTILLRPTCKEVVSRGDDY
T3 sequence (O08663 whole entry): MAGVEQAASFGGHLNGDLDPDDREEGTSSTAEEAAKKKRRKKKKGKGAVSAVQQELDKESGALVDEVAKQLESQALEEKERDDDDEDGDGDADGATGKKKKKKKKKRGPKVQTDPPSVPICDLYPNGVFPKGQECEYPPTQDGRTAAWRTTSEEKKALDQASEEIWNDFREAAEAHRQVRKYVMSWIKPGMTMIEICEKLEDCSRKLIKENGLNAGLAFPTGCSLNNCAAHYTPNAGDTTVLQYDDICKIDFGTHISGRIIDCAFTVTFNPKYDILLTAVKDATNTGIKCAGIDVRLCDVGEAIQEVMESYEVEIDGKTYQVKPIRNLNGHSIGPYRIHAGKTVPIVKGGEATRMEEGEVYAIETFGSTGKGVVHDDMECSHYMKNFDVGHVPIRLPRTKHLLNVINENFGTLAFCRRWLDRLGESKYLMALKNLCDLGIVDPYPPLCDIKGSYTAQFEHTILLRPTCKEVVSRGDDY

As to `NC(=O)NCc1cccc(Oc2c[nH]nc2-c2ccc(F)cc2)c1` [Example 1, [3-[[3-(4-Fluorophenyl)-1H-pyrazol-4-yl]oxy]phenyl]methylurea], the figures for the “weight loss compared to the vehicle group” value in the assay on obese DIO mice (day 7), in the assay with obese DIO mice (day 14) and with obese DIO mice (day 21) were “about 6%”, roughly 10% and roughly 14%, respectively. Further, the 50% inhibitory concentration (IC50) was 11 nM at human MetAP2, greater than 30000 nM against human MetAP1 and 36 nM on mouse MetAP2.

By IC50 is commonly meant the concentration needed to halve the response being measured.
